Patent publication US4698352A, “4-oxo-1,4-dihydronicotinic acid derivatives, salts thereof, and antibacterial agents containing the same” (Toyama Chemical Co., Ltd., priority 1982, dated 1987)
Values after ≈ are worked out from the molar mass of the structure shown. Read-outs that look alike come from different tables or passages of the source.

Assays:
Test in all cases: Antibacterial activity (MIC), agar dilution
Type in all cases: cell-based
[1] = tested on: Aci. antitratus A-6; conditions: 20 h, Aci. antitratus A-6; 10^6 cells per ml; 37° C., 20 hours; read-out: MIC
Text: (§1) The amount of bacteria inoculated was 10^4 cells per plate (10^6 cells per ml).

[2] = tested on: E. coli NIHJ JC-2; conditions: Escherichia coli, NIHJJC2, 20 h
Text: as §1

[3] = tested on: E. coli TK-111; conditions: Escherichia coli, TK111, 20 h
Text: as §1

[4] = tested on: Ent. cloacae IID977; conditions: Enterobacter cloacae, IID977, 20 h, Ent. cloacae IID977; 10^6 cells per ml; 37° C., 20 hours; read-out: MIC
Text: as §1

[5] = tested on: Kl. pneumoniae Y-41; conditions: Klebsiella pneumoniae, Y41, 10^6 cells per ml, 37° C., 20 hours, read-out: MIC
Text: as §1

[6] = tested on: Kl. pneumoniae Y-50; conditions: Klebsiella pneumoniae, Y50, 20 h, 10^6 cells per ml, 37° C., read-out: MIC
Text: as §1

[7] = tested on: Pro. mirabilis T-111; conditions: Proteus mirabilis, 37° C.
Text: as §1

[8] = tested on: Pro. morganii T-216; conditions: Morganella morganii, T216, 10^6 cells per ml, 37° C., 20 hours, read-out: MIC
Text: as §1

[9] = tested on: Pro. vulgaris GN3027; conditions: Proteus vulgaris, GN3027, 20 h, Pro. vulgaris GN3027; 10^6 cells per ml; 37° C., 20 hours; read-out: MIC
Text: as §1

[10] = tested on: Ps. aeruginosa IFO3445; conditions: Pseudomonas aeruginosa; Ps. aeruginosa IFO3445; 10^6 cells per ml; 37° C., 20 hours; read-out: MIC
Text: as §1

[11] = tested on: Ps. aeruginosa S-68; conditions: Pseudomonas aeruginosa
Text: as §1

[12] = tested on: St. aureus FDA209P; conditions: Staphylococcus aureus, FDA209P, 20 h, St. aureus FDA209P; 10^6 cells per ml; 37° C., 20 hours; read-out: MIC
Text: as §1

[13] = tested on: E. coli TK-3*; conditions: Escherichia coli, 20 h, E. coli TK-3, penicillinase-producing; 10^6 cells per ml; read-out: MIC
Text: as §1
(§2) * Penicillinase-producing bacteria

[14] = tested on: Kl. pneumoniae Y-4*; conditions: Klebsiella pneumoniae, 20 h, Kl. pneumoniae Y-4, penicillinase-producing; 10^6 cells per ml; read-out: MIC
Text: as §1, §2

[15] = tested on: Ps. aeruginosa GN3379*; conditions: Pseudomonas aeruginosa, Ps. aeruginosa GN3379, penicillinase-producing, 10^6 cells per ml
Text: as §1, §2

[16] = tested on: St. aureus F-137*; conditions: Staphylococcus aureus, 20 h
Text: as §1, §2

[17] = tested on: E. coli GN5482**; conditions: Escherichia coli, 20 h; E. coli GN5482, cephalospolinase-producing; 10^6 cells per ml; read-out: MIC
Text: as §1
(§3) ** Cephalospolinase-producing bacteria

[18] = tested on: Pro. vulgaris GN76**; conditions: Proteus vulgaris
Text: as §1, §3

[19] = tested on: Ps. aeruginosa GN918**; conditions: Pseudomonas aeruginosa, 20 h; Ps. aeruginosa GN918, cephalospolinase-producing; 10^6 cells per ml; read-out: MIC
Text: as §1, §3

[20] = E. coli NIHJ JC-2, 10^6 cells per ml, 37° C., 20 hours, read-out: MIC
[21] = T111, 10^6 cells per ml, 20 hours, read-out: MIC
[22] = E. coli TK-111, 10^6 cells per ml, 37° C., 20 hours, read-out: MIC
[23] = St. aureus F-137, penicillinase-producing, 10^6 cells per ml, read-out: MIC

| SMILES | MIC [1] [µg/mL] | MIC [2, 20] [µg/mL] | MIC [4] [µg/mL] | MIC [5] [µg/mL] | MIC [6] [µg/mL] | MIC [7, 21] [µg/mL] | MIC [8] [µg/mL] | MIC [9] [µg/mL] | MIC [10] [µg/mL] | MIC ([11]; S68, 20 h) [µg/mL] | MIC [12] [µg/mL] | MIC [13] [µg/mL] | MIC [14] [µg/mL] | MIC ([15]; 20 h, read-out: MIC) [µg/mL] | MIC [17] [µg/mL] | MIC ([18]; GN76, 20 h) [µg/mL] | MIC [19] [µg/mL] | MIC [3, 22] [µg/mL] | MIC [16, 23] [µg/mL] | also measured |
| --- | --- | --- | --- | --- | --- | --- | --- | --- | --- | --- | --- | --- | --- | --- | --- | --- | --- | --- | --- | --- |
| CC=Cc1cc(=O)c(C(=O)O)cn1-c1ccc(O)cc1C | 6.25 (≈ 21.9 µM) | 3.13 (≈ 11 µM) | 6.25 (≈ 21.9 µM) | 12.5 (≈ 43.8 µM) | 1.56 (≈ 5.47 µM) | 25 (≈ 87.6 µM) | 3.13 (≈ 11 µM) | 0.39 (≈ 1.37 µM) | 25 (≈ 87.6 µM) | 12.5 (≈ 43.8 µM) | 6.25 (≈ 21.9 µM) | 3.13 (≈ 11 µM) | 25 (≈ 87.6 µM) | 25 (≈ 87.6 µM) | 0.39 (≈ 1.37 µM) | 1.56 (≈ 5.47 µM) | 6.25 (≈ 21.9 µM) | – | – | MIC [3]: 1.56 µg/mL (≈ 5.47 µM); MIC [16]: 12.5 µg/mL (≈ 43.8 µM) |
| Cc1cc(O)ccc1-n1cc(C(=O)O)c(=O)cc1CCc1ccccc1 | 0.39 (≈ 1.12 µM) | 3.13 (≈ 8.96 µM) | 6.25 (≈ 17.9 µM) | 12.5 (≈ 35.8 µM) | 1.56 (≈ 4.46 µM) | – | 3.13 (≈ 8.96 µM) | 0.1 (≈ 0.286 µM) | 25 (≈ 71.6 µM) | 12.5 (≈ 35.8 µM) | 0.78 (≈ 2.23 µM) | 3.13 (≈ 8.96 µM) | 12.5 (≈ 35.8 µM) | – | 0.2 (≈ 0.572 µM) | 1.56 (≈ 4.46 µM) | 3.13 (≈ 8.96 µM) | 0.39 (≈ 1.12 µM) | 0.78 (≈ 2.23 µM) | MIC ([7]; T111, 20 h, 10^6 cells per ml): 12.5 µg/mL (≈ 35.8 µM); MIC ([15]; GN3379, 20 h): 12.5 µg/mL (≈ 35.8 µM) |
| CC(=O)Oc1ccc(-n2cc(C(=O)OCC(O)CO)c(=O)cc2-c2ccc(N(C)C)cc2)cc1 (stereo not drawn) | 1.56 (≈ 3.34 µM) | – | 6.25 (≈ 13.4 µM) | 25 (≈ 53.6 µM) | 3.13 (≈ 6.71 µM) | 25 (≈ 53.6 µM) | 12.5 (≈ 26.8 µM) | 0.78 (≈ 1.67 µM) | 50 (≈ 107 µM) | – | 1.56 (≈ 3.34 µM) | 6.25 (≈ 13.4 µM) | 25 (≈ 53.6 µM) | 50 (≈ 107 µM) | 0.1 (≈ 0.214 µM) | – | 12.5 (≈ 26.8 µM) | 0.78 (≈ 1.67 µM) | 1.56 (≈ 3.34 µM) | MIC [2]: 3.13 µg/mL (≈ 6.71 µM); MIC ([11]; S68, Ps. aeruginosa S-68, 10^6 cells per ml, 37° C., 20 hours, read-out: MIC): 25 µg/mL (≈ 53.6 µM); MIC ([18]; 20 h, Pro. vulgaris GN76, cephalospolinase-producing, 10^6 cells per ml, read-out: MIC): 6.25 µg/mL (≈ 13.4 µM) |
